The values that follow are results of earlier work, collected in patent US10351593B2, “Derivatives of dolastatin 10 and uses thereof” (NewBio Therapeutics, Inc., priority 2015, dated 2019).

The subject of this series is human carcinoma lines.

Take `COc1cccc2c1C(=O)c1c(O)c3c(c(O)c1C2=O)C[C@@](O)(C(=O)CO)C[C@@H]3O[C@H]1C[C@H](N)[C@H](O)[C@H](C)O1` [doxorubicin]: the IC50 (usually the midpoint of a concentration-inhibition curve) is 100 to 200 nM.
